For series [1], the system named is Staphylococcus epidermidis (C621). Format: cell-based. An excerpt:
(§1) The bacterial strains used were E. coli C498, E. coli C500, Escherichia coli UB1005 and its antibiotic supersusceptible derivative DC2 (22); a clinical isolate of Staphylococcus epidermidis (C621); coryneform bacterial strain Corynebacterium xerosis (C875); and E. coli ATCC 25922, Staphylococcus aureus ATCC 25923, Enterococcus faecalis ATCC 29212, Bacillus subtilis ATCC 6633 and Pseudomonas aeruginosa ATCC 27853, all from American Type Culture Collection.
(§2) Peptide antibacterial activity was assessed by the method of R. Hancock et al. (Wu & Hancock (1999), J. Biol. Chem., v. 274, pp. 29-35). Test strains of bacteria from Mueller Hinton agar (MHA) plates were inoculated into 5 ml Mueller Hinton Broth (MHB) in tubes and grown overnight at 37° C. on a shaker (180 rpm). Serial dilutions of test peptides (at 10 times the required test concentrations) were made in 0.01% acetic acid, 0.2% BSA, in polypropylene or coated glass tubes as follows: the test peptide was (a) dissolved in distilled water at 20 times the required maximum concentration (enough final volume for all tests to be performed on a given day); (b) diluted into an equal volume of 0.02% acetic acid, 0.4% BSA to give 10 times the required maximum concentration; (c) serial doubling dilutions were performed in 0.01% acetic acid, 0.2% BSA to provide serial dilutions of peptides at 10 times the required test concentrations, e.g., 640, 320, 160, . . . 2.5 μg/ml. (No deleterious effects of long-term storage of peptides in these media have been detected). Overnight bacterial cultures were diluted in MHB to give 2−7×10^5 colony forming units/ml. Bacterial suspension (100 μl) was dispensed in each well; controls without bacteria were maintained in parallel. To each well was added 11 μl of 10× test peptide and plates were incubated at 37° C. for 18-24 hours, and checked again at 40-48 hours. Plates were read visually and at 600 nm in a microplate reader (Molecular Devices).
(§3) were synthesized. The antibacterial activity of these peptides was determined against both Gram-positive bacteria ([…], Corynebacterium xerosis) and Gram-negative bacteria (various strains of E. coli). The results are shown in Table 2, along with the average hydrophobicity of each peptide, calculated as described herein.
(§4) A further number of the peptides of the invention were tested for antimicrobial activity against a range of Gram-positive and Gram-negative bacteria by the assay described immediately before Example 1.

The test system of series [2] is Corynebacterium xerosis (C875). The series is classed as cell-based.
From the text: as §1, §2, §3, §4

The test system of the next series is E. coli UB1005. The series is classed as cell-based, Escherichia coli.
From the text: as §1, §2, §4

Series [3] in a line: Hydrophobicity (hydropathy) from reverse-phase HPLC retention scale. The series is classed as physicochemical. Also noted: key to Average Hydrophobicity of Core Sequence / Mean Core segment Hydrophobicity: arithmetic average of Table 1 hydropathy values of constituent residues; key to Hydropathy: hydropathy scale from HPLC retention times of model peptides (Table 1). The settings on record: for Mean residue hydropathy of X-residue peptide / Hydropathy: Table 1; for Hydropathy: of the X-residue, from HPLC retention of KKAAAXAAAAAXAAWAAXAAAKKKK-amide peptides; for Mean Core segment Hydrophobicity: Table 3. An excerpt:
The “hydrophobicity value” of an amino acid residue means the hydrophobicity value of that residue as shown in Table 1 or as calculated by the method described herein.
The “hydrophobicity value” of an amino acid sequence or peptide means the arithmetic average of the individual hydrophobicity values of the constituent amino acid residues of the sequence.
Various hydrophobicity scales for proteins and amino acids have been described in the literature but the inventors have established the hydrophobicity scale of Table 1 based on the retention times on HPLC of a series of hydrophobic model peptides, as described in Liu and Deber (1998), Biopolymers (Peptide Science), v. 47, pp. 41-62).
The hydrophobicity value shown for each amino acid in Table 1 as “hydropathy” may be used as the hydrophobicity value for that amino acid in any peptide whose hydrophobicity value has to be calculated. The “average hydrophobicity” of a peptide containing amino acids shown in Table 1 is calculated by determining the arithmetic average of the Table 1 “hydropathy” values for the constituent amino acids of the sequence.
Peptides in accordance with the invention may also include other amino acids. For an amino acid not included in Table 1, the hydrophobicity value may be determined by the same method as described herein for obtaining the values of Table 1. For example, a peptide such as KKAAAXAAAAAXAAXAAXAAAKKKK-amide (Sequence ID No: 1) may be synthesized, where X is the amino acid whose hydrophobicity value is to be determined, and the retention time of the peptide on HPLC is determined, as described in the Examples. Similar peptides where X is Lys or Phe are also prepared and their HPLC retention times determined. The retention time, Rx, is converted to the hydropathy value H for the selected amino acid using the equation
H=(10×ΔtRx-Lys/ΔtRPhe-Lys)−5.00
where ΔtRx-Lys=retention time difference in minutes between Rx and the retention time of the most hydrophilic peptide tested (X=Lys) and where ΔtRPhe-Lys=retention time difference in minutes between the most hydrophobic peptide tested (X=Phe) and the most hydrophilic (X=Lys).
The retention time of each peptide was determined on a C4 reversed-phase column (4.6×250 mm, 300 A pore size, 10 μ particle size). Equal amounts of each peptide were injected into the column and eluted at a flow rate of 1 mL/min, utilizing a linear AB gradient (2% B/min), where buffer A was 0.1% TFA/ddH2O, and buffer B was 0.1% TFA/acetonitrile. The retention time of each peptide reported here was the average of triplicate measurements.

In the next series the test system is E. coli DC2. Briefly: Assay of antibacterial activity (MIC), E. coli DC2. The series is classed as cell-based, Escherichia coli. The settings on record: Table 3; Gram-negative.
From the text: as §1, §2, §4

A further series relates to Rabbit RBC. Format: cell-based. As for the experimental part:
Erythrocytes from heparinized rabbit or human blood were washed three times with phosphate-buffered saline (PBS; 5 mM phosphate buffer, 0.14 M saline, pH 7.3), and centrifuged at 1000×g for 15 min at 4° C. The erythrocytes were diluted with PBS to 4% (v/v). Dilutions of the peptides in PBS were plated in 100 μl volumes in microtitre plates (Costar 3790, polypropylene) together with 100μl of the erythrocyte suspension. PBS was used as control and 100% lysis was determined in 0.1% Triton X-100. The plates were incubated at 37° C. for 1 h and then centrifuged at 1000×g for 5 min. 100 μl aliquots of the supernatant were transferred to microtitre plates (Nunc, polystyrene), and the release of hemoglobin was monitored by measurement of the absorbance at 540 nm in a microplate reader. The results are shown in Table 6, for peptide concentrations of […]. With only one or two exceptions, little or no hemolysis was seen.

In brackets after ≈: the same amount, converted by molar mass. Like-named read-outs stand apart in the source and are kept apart here. Where a SMILES comes first, the peptide text is derived from it. Some results are limits rather than exact numbers.

Take `CC(C)[C@H](NC(=O)[C@H](C)NC(=O)[C@H](C)NC(=O)[C@H](C)NC(=O)[C@H](CCCCN)NC(=O)[C@@H](N)CCCCN)C(=O)N[C@@H](C)C(=O)N[C@@H](C)C(=O)N[C@@H](C)C(=O)N[C@@H](C)C(=O)N[C@@H](C)C(=O)N[C@H](C(=O)N[C@@H](C)C(=O)N[C@@H](C)C(=O)N[C@@H](Cc1c[nH]c2ccccc12)C(=O)N[C@@H](C)C(=O)N[C@@H](C)C(=O)N[C@H](C(=O)N[C@@H](C)C(=O)N[C@@H](C)C(=O)N[C@@H](C)C(=O)N[C@@H](CCCCN)C(=O)N[C@@H](CCCCN)C(=O)N[C@@H](CCCCN)C(=O)N[C@@H](CCCCN)C(N)=O)C(C)C)C(C)C` [V] (H-KKAAAVAAAAAVAAWAAVAAAKKKK-NH2; N-terminus assumed): the “MIC S. epidermidis C621” value in series [1] (Table 3, Gram-positive) is >32 µM. For the same compound, in series [2] (Example 5, active on C. xerosis, not on the other bacteria tested), the “Antimicrobial activity, spectrum (in words)” value is given as “activity against gram-positive C. xerosis only”. Further, the “MIC C. xerosis C875” value in series [2] (Table 3, Gram-positive) was 0.5 µM (≈ 1.17 µg/mL). For the same compound, the “MIC E. coli UB1005” value with E. coli UB1005 (Table 3, Gram-negative) was >32 µM. Also, in series [3], the “Mean residue hydropathy of X-residue peptide” value (“Mean residue hydropathy” for short) is on record as 0.87, the Hydropathy worked out at 3.02 and the “Mean Core segment Hydrophobicity” value was determined as 0.87. For the same compound, in the series on E. coli DC2, the “MIC E. coli DC2” value is >32 µM.
Turning to `C[C@H](NC(=O)[C@H](C)NC(=O)[C@H](C)NC(=O)[C@H](C)NC(=O)[C@H](C)NC(=O)[C@H](C)NC(=O)[C@H](C)NC(=O)[C@H](CCCCN)NC(=O)[C@@H](N)CCCCN)C(=O)N[C@@H](C)C(=O)N[C@@H](C)C(=O)N[C@@H](C)C(=O)N[C@@H](C)C(=O)N[C@@H](C)C(=O)N[C@@H](Cc1c[nH]c2ccccc12)C(=O)N[C@@H](C)C(=O)N[C@@H](C)C(=O)N[C@@H](C)C(=O)N[C@@H](C)C(=O)N[C@@H](C)C(=O)N[C@@H](C)C(=O)N[C@@H](CCCCN)C(=O)N[C@@H](CCCCN)C(=O)N[C@@H](CCCCN)C(=O)N[C@@H](CCCCN)C(N)=O` [Peptide A25] (H-KKAAAAAAAAAAAAWAAAAAAKKKK-NH2; N-terminus assumed), in series [1] (C621), the “MIC S. epidermidis C621” value is >64 µM. The “MIC C. xerosis C875” value in series [2] was 2 µM (≈ 4.5 µg/mL). For the same compound, the “MIC E. coli UB1005” value in the series on E. coli UB1005 (UB1005) is >64 µM. Also, in the series on Rabbit RBC, the “Rabbit RBC (% lysis) 50 μM” value came to 0 % lysis and the “Rabbit RBC (% lysis) 200 μM” value stood at 1 % lysis. For the same compound, in the series on E. coli DC2, the “MIC E. coli DC2” value was >64 µM.
As for `C[C@H](NC(=O)[C@H](C)NC(=O)[C@H](C)NC(=O)[C@@H](NC(=O)[C@H](C)NC(=O)[C@H](C)NC(=O)[C@H](C)NC(=O)[C@H](CCCCN)NC(=O)[C@@H](N)CCCCN)[C@@H](C)O)C(=O)N[C@@H](C)C(=O)N[C@@H](C)C(=O)N[C@H](C(=O)N[C@@H](C)C(=O)N[C@@H](C)C(=O)N[C@@H](Cc1c[nH]c2ccccc12)C(=O)N[C@@H](C)C(=O)N[C@@H](C)C(=O)N[C@H](C(=O)N[C@@H](C)C(=O)N[C@@H](C)C(=O)N[C@@H](C)C(=O)N[C@@H](CCCCN)C(=O)N[C@@H](CCCCN)C(=O)N[C@@H](CCCCN)C(=O)N[C@@H](CCCCN)C(N)=O)[C@@H](C)O)[C@@H](C)O` [T] (H-KKAAATAAAAATAAWAATAAAKKKK-NH2; N-terminus assumed), the “MIC S. epidermidis C621” value in series [1] (C621) is >64 µM. For the same compound, the “MIC C. xerosis C875” value in series [2] is >64 µM. The “MIC E. coli UB1005” value in the series with E. coli UB1005 (UB1005) was >64 µM. In series [3], the “Mean residue hydropathy” value is 0.22, the Hydropathy is −1.08 and the “Mean Core segment Hydrophobicity” value amounted to 0.22. Besides, the “MIC E. coli DC2” value in the series with E. coli DC2 was >64 µM.
On to `C[C@H](NC(=O)[C@H](C)NC(=O)[C@H](C)NC(=O)[C@H](CC(N)=O)NC(=O)[C@H](C)NC(=O)[C@H](C)NC(=O)[C@H](C)NC(=O)[C@H](CCCCN)NC(=O)[C@@H](N)CCCCN)C(=O)N[C@@H](C)C(=O)N[C@@H](C)C(=O)N[C@@H](CC(N)=O)C(=O)N[C@@H](C)C(=O)N[C@@H](C)C(=O)N[C@@H](Cc1c[nH]c2ccccc12)C(=O)N[C@@H](C)C(=O)N[C@@H](C)C(=O)N[C@@H](CC(N)=O)C(=O)N[C@@H](C)C(=O)N[C@@H](C)C(=O)N[C@@H](C)C(=O)N[C@@H](CCCCN)C(=O)N[C@@H](CCCCN)C(=O)N[C@@H](CCCCN)C(=O)N[C@@H](CCCCN)C(N)=O` [N] (H-KKAAANAAAAANAAWAANAAAKKKK-NH2; N-terminus assumed), for which the “MIC S. epidermidis C621” value in series [1] (C621) was >64 µM. Also, the “MIC C. xerosis C875” value in series [2] was >64 µM. Further, in the series on E. coli UB1005 (UB1005), the “MIC E. coli UB1005” value was >64 µM. Besides, in series [3], the “Mean residue hydropathy” value is recorded as −0.16, the Hydropathy is −3.79 and the “Mean Core segment Hydrophobicity” value is recorded as −0.21. The “MIC E. coli DC2” value in the series on E. coli DC2 is >64 µM.
Take `C[C@H](NC(=O)CNC(=O)[C@H](C)NC(=O)[C@H](C)NC(=O)[C@H](C)NC(=O)[C@H](CCCCN)NC(=O)[C@@H](N)CCCCN)C(=O)N[C@@H](C)C(=O)N[C@@H](C)C(=O)N[C@@H](C)C(=O)N[C@@H](C)C(=O)NCC(=O)N[C@@H](C)C(=O)N[C@@H](C)C(=O)N[C@@H](Cc1c[nH]c2ccccc12)C(=O)N[C@@H](C)C(=O)N[C@@H](C)C(=O)NCC(=O)N[C@@H](C)C(=O)N[C@@H](C)C(=O)N[C@@H](C)C(=O)N[C@@H](CCCCN)C(=O)N[C@@H](CCCCN)C(=O)N[C@@H](CCCCN)C(=O)N[C@@H](CCCCN)C(N)=O` [G] (H-KKAAAGAAAAAGAAWAAGAAAKKKK-NH2; N-terminus assumed): the “MIC S. epidermidis C621” value in series [1] (C621) was >64 µM. The “MIC C. xerosis C875” value in series [2] is >64 µM. Also, in the series with E. coli UB1005 (UB1005), the “MIC E. coli UB1005” value is >64 µM. Further, in series [3], the “Mean residue hydropathy” value is on record as −0.13, the Hydropathy is on record as −3.31 and the “Mean Core segment Hydrophobicity” value is recorded as −0.13. Besides, the “MIC E. coli DC2” value against E. coli DC2 was >64 µM.
